Experimental data: patent publication US5877165A, “Boronated porhyrins and methods for their use” (priority 1997, dated 1999)
Entries after “also recorded” stand apart in the source; their conditions may differ.

How the values were obtained:
Type in all cases: in vivo, BALB/c mice
[1] = Hematological, enzymatic and chemical blood analyses and weight change, mice with KHJJ mammary carcinomas (Examples 4-7, Table 1); details: NiTCP 160 or BPA 900 μg/gbw; 6-78 hr
Description: Female BALB/c mice (Taconic Farms, Germantown, N.Y.) (20-25 g) were implanted with either KHJJ or EMT-6 tumors. For KHJJ tumors, 1-3 mm^3 tumor fragments were implanted subcutaneously (s.c.) in the dorsal thorax of each mouse using an 18-gauge trocar. For EMT-6 tumors, 2.5×10^5 cells were implanted similarly using a 27-gauge needle. EMT-6 tumor cells were grown alternately in vivo and in vitro. Single-cell suspensions were prepared from mouse-grown tumors by trypsinization. These were grown in cell culture for several passages and then were frozen in 10% DMSO and stored in liquid nitrogen. Prior to implantation in mice, the cells were thawed and grown in tissue culture in Alpha-MEM with 10% FBS for several passages. […]
Levels of glucose [GLU], blood urea nitrogen [BUN], blood creatinine [BCR], alanine transaminase [ALT], aspartate transaminase [AST], alkaline phosphatase [ALP], total protein [TPR], albumin [ALB], and creatine phosphokinase [CPK] were determined in blood plasma using a Cobas Fara II microanalysis system. Blood platelets [PLT] and white blood cells [WBC] were counted using a Serono-Baker System 9000 automated hematology microanalyzer. […]

KHJJ mammary carcinomas = test: Boron biodistribution, mice with KHJJ mammary carcinomas (Examples 4-7, Table 1); details: mouse, in vivo; for Boron Concentration: Blood / Boron Concentration: Brain / Boron Concentration: Tumor: ip, 160 mg/kg
Description: Female BALB/c mice (Taconic Farms, Germantown, N.Y.) (20-25 g) were implanted with either KHJJ or EMT-6 tumors. For KHJJ tumors, 1-3 mm^3 tumor fragments were implanted subcutaneously (s.c.) in the dorsal thorax of each mouse using an 18-gauge trocar. For EMT-6 tumors, 2.5×10^5 cells were implanted similarly using a 27-gauge needle. EMT-6 tumor cells were grown alternately in vivo and in vitro. Single-cell suspensions were prepared from mouse-grown tumors by trypsinization. These were grown in cell culture for several passages and then were frozen in 10% DMSO and stored in liquid nitrogen. Prior to implantation in mice, the cells were thawed and grown in tissue culture in Alpha-MEM with 10% FBS for several passages.
(§1) Under deep halothane anesthesia leading to euthanasia, right ventricular blood was collected in Microtainer (Becton-Dickinson, Rutherford, N.J.) tubes containing EDTA for hematological analyses and boron assays of whole blood and in Microtainer™ tubes containing lithium heparin for chemical analyses and enzyme assays of blood plasma. Tumor, brain, fat, muscle, and liver tissues were sampled at necropsy for boron analyses.
Direct current plasma-atomic emission spectroscopy [DCP-AES] (ARL/Fisons Model SS-7) was used (detection limit: 0.1 μg/ml). Samples (50-130 mg) were digested at 60° C. with sulfuric acid:nitric acid (1:1). Triton X-100 and water were added to give final concentrations of ≈50 mg tissue/ml, 15% total acid v/v and 5% Triton X-100 v/v. Fat and liver tissues were assayed for ^10 B by prompt-gamma spectroscopy (Fairchild, et al., 1986). The prompt-gamma measurements were multiplied by 5.0 to give the total boron concentrations due to the use of boron of natural isotope abundance in the syntheses of all boronated porphyrins reported.
Seven mice having KHJJ mammary carcinomas were given one intraperitoneal (i.p.) injection of 900 μg/g body weight of the boron compound presently used for BNCT of malignant brain tumors, p-boronophenylalanine (BPA) complexed with fructose. BPA was prepared in accordance with procedure described in Coderre, et al., 1996 incorporated herein by reference in its entirety as if set forth in full.
Mice were euthanized during the collection of blood while under Halothane anesthesia. At necropsy, the apparent states of structural integrity, consistency, color or abnormality, if any, of tissues were observed and tumor, brain and liver tissues were collected from each mouse for boron analysis.
Eight mice having KHJJ mammary carcinomas were injected with the NiTCP solution in the amount of 160 μg NiTCP/g body weight (36 μgB/g body weight) in six i.p. injections over 20 hours.
(§2) Six hours after the mice were last injected with NiTCP, mice were euthanized during the collection of blood while under Halothane anesthesia and right ventricular blood was collected from each mouse for hematological and chemical analysis without pooling the samples. At necropsy, the apparent states of structural integrity, consistency, color, or abnormality, if any, of tissues were observed and tumor, brain and liver tissues were collected from each mouse for boron analysis without pooling the samples.
Seven mice having KHJJ mammary carcinomas were injected with the NiTCP solution in the amount of 160 μg NiTCP/g body weight (36 μgB/g body weight) in six i.p. injections over 20 hours.
as §2, with “Sixteen hours” for “Six hours”, “were” for “were last”, “boron analysis. […]” for “boron analysis without pooling the samples.”

[2] = Experiment I: hematological, chemical and enzymatic tests, mice bearing KHJJ tumors (Table 7); details: 3 ip over 8 hr, ZnDPE 118, NiTCP 183 μg/gbw, median (range)
Description: Lipophilic porphyrins 1, 2, 4, 5, and 6 were injected as emulsions in either 3% or 9% CRM and either 6% or 18% PRG with saline as previously described in Example 2 above. Water soluble porphyrins 3 and 7 were dissolved in saline. BPA was solubilized as a fructose complex.
Female BALB/c mice (from Taconic Farms, Germantown, N.Y.) (20-25 g) were implanted with either KHJJ or EMT-6 tumors according to the procedure described in Example 3A above.
as §1
In Experiment I, NiTCP (183 μg/gbw) and lipophilic, heme derivative ZnDPE (118 μg/gbw) were compared in mice bearing KHJJ mammary tumors. The porphyrins were given as 3% CRM and 6% PrG emulsions in 3 ip injections given over 8 hrs. Animals were euthanized 15 hr, 39 hr, and 90 hr after the last injection.
Hematological, chemical and enzymatic tests were carried out as described in Example 3 above. Nonparametric statistical analyses were carried out using the Wilcoxon Two-Sample Test in accordance with procedures described in Slatkin, D.N., 1995. Boron analyses were conducted in accordance with the procedure described in Example 3 above. Fat and liver tissues were assayed for ^10 B by prompt-gamma spectroscopy as described in Fairchild, et al., 1986. These measurements were multiplied by 5.0 to give total boron concentrations due to the use of boron of natural isotope abundance in the syntheses of all boronated porphyrins reported.

Substance: Nickel Tetracarboranylphenylporphyrin [NiTCP]
- toxicity, in words [1]: some minor, evidently transient, weight loss was noted six hours after the last NiTCP injection; also recorded: The BUN levels in mice given NiTCP at all three time points were higher than those in mice given BPA; also recorded: The ALP and ALT were somewhat depressed 78 hours after injections
- boron delivered to tumor relative to BPA (KHJJ mammary carcinomas): twice the amount of boron to tumor than that of BPA
- Boron Concentration: Blood (KHJJ mammary carcinomas; 16 h): 13.2 (4.2-30.5) μg B/g
- Boron Concentration: Brain (KHJJ mammary carcinomas; 16 h): 3.8 (2.4-5.0) μg B/g
- Boron Concentration: Tumor (KHJJ mammary carcinomas; 16 h): 25.5 (16.2-38.7) μg B/g
- Boron Concentration: Blood (KHJJ mammary carcinomas; 78 h): 0.2 (0.4-5.8) μg B/g
- Boron Concentration: Brain (KHJJ mammary carcinomas; 78 h): 1.7 (0.1-0.2) μg B/g
- Boron Concentration: Tumor (KHJJ mammary carcinomas; 78 h): 17.0 (9.2-28.2) μg B/g
- % Δw ([2]; 15 hr): 0.5 (^- 3.2-4.1) %
- ALP ([2]; 15 hr): 80 (56-86)
- ALT ([2]; 15 hr): 28 (21-32)
- AST ([2]; 15 hr): 81 (60-146)
- BCR ([2]; 15 hr): 0.5 (0.4-0.5)
- BUN ([2]; 15 hr): 32 (27-41)
- CPK ([2]; 15 hr): 66 (41-289)
- GLU ([2]; 15 hr): 199 (183-262)
- PLT ([2]; 15 hr): 733 (579-956)
- % Δw ([2]; 39 hr): 3.9 (3.0-9.2) %
- ALP ([2]; 39 hr): 71 (57-88)
- ALT ([2]; 39 hr): 32 (27-153)
- AST ([2]; 39 hr): 108 (76-442)
- BCR ([2]; 39 hr): 0.4 (0.3-0.4)
- BUN ([2]; 39 hr): 35 (32-43)
- CPK ([2]; 39 hr): 167 (91-227)
- GLU ([2]; 39 hr): 210 (183-260)
- PLT ([2]; 39 hr): 826 (790-927)
- % Δw ([2]; 90 hr): 7.8 (5.9-12.1) %
- ALP ([2]; 90 hr): 40 (37-80)
- ALT ([2]; 90 hr): 27 (26-33)
- AST ([2]; 90 hr): 138 (46-285)
- BCR ([2]; 90 hr): 0.4 (0.4-0.4)
- BUN ([2]; 90 hr): 24 (14-34)
- CPK ([2]; 90 hr): 69 (52-94)
- GLU ([2]; 90 hr): 218 (172-242)
- PLT ([2]; 90 hr): 790 (553-839)
